Consider 5 molecules from paper PMC10572602, “Molecular Mechanism of STIL Coiled-Coil Domain Oligomerization” (International Journal of Molecular Sciences, 2023).

In series [1] the test system is STIL CCD peptide. The experiment in a line: AUC sedimentation velocity (SV), oligomeric state. The format is physicochemical. Conditions: for sw / mw (solution mass from c(s) fit) / f/f0 / sw(20,w) / oligomeric state (average number of monomers in the oligomer): AUC-SV, 60 krpm; for sw / mw (solution mass from c(s) fit) / oligomeric state (average number of monomers in the oligomer): 20 °C; for sw / mw (solution mass from c(s) fit) / f/f0 / sw(20,w): pH 6.8; for mw (solution mass from c(s) fit) / oligomeric state (average number of monomers in the oligomer): 95% confidence level; for oligomeric state (average number of monomers in the oligomer): continuous c(s), 25 mM sodium phosphate pH 6.8, NaCl. The protocol:
Previously, we and others have shown by size-exclusion chromatography and multi-angle light scattering that the oligomerization of a STIL CCD peptide is concentration dependent. However, these studies were qualitative and the interaction was not quantified. To quantify the oligomerisation of the STIL CCD peptide, analytical ultracentrifugation (AUC) sedimentation velocity (SV) and sedimentation equilibrium (SE) experiments were performed (Figure 2A, Table 1 and Figures S4–S9, S18 and S19). AUC-SV experiments were conducted at several concentrations to explore how the oligomeric state changed with concentration in the low-to-high µM concentration range, and also to estimate the dissociation constants of the oligomerization of the STIL CCD peptide.
(§1) Analytical ultracentrifugation (AUC) experiments were carried out using a Beckman Optima XL-A or XL-I analytical ultracentrifuge. Measurements were performed at 20 °C unless otherwise stated, using an An-50 or An-60 rotor, in Sodium Phosphate Buffer pH 6.8 (25 mM Na2PO4 with addition of 137 mM NaCl, pH measured using Jenway (TM) 3510 benchtop and adjusted using 1M HCl and 1M NaOH solutions). The partial specific volume ( υ¯ ) for each peptide were calculated in Sedfit using values from Cohn and Edsall. The buffer densities and viscosities were calculated using UltraScan III [54].
Sedimentation velocity (SV) experiments were performed in EPON 2-channel centerpieces with quartz windows or aluminium centrepieces with sapphire windows. The samples were centrifuged at 50 or 60 krpm where stated, with absorbance measurements taken from a radial range of 5.7–7.3 cm. 120 scans were taken at 5 min intervals, the data were fit in Sedfit to a continuous c(s) distribution model at a 95% confidence level. The frictional ration and baseline were floated, and Time-invariant and Radial-invariant noise were fit. Initially data were fit between a range of Svedberg ratio of 0–15, but this was reduced to 0–3 for all data as there were no larger species. The residuals for each individual fit are shown in Figures S14–S17 as a bitmap in which the color indicates the difference between the model fit and the raw data over the radial range to which the data were fitted. The scans are in vertical chronological order.

Series [2] relates to STIL CCD peptide. The experiment in a line: AUC sedimentation equilibrium (SE), oligomeric state. Conditions: absorbance 225 nm, 95% confidence limits. Type of series: physicochemical. The protocol: (§2) To quantify the dissociation constants of the possible monomer-dimer and dimer-tetramer transitions, we used fluorescence-based binding measurements. Using micro-scale thermophoresis, fluorescence measurements were taken at increasing concentrations of WT CCD peptide in a fixed background of 5 µM fluorophore-labelled peptide. […] Fitting the fluorescence data to the Hill equation provided a dissociation constant of 8 ± 2 µM and a cooperativity of 1.2 ± 0.3 (Figure 2B, Table S4). We interpret this as being for the monomer-dimer transition, and that the fluorescence measurements are insensitive to the higher-order oligomerization. […] To probe the possible dimer-tetramer transition, we turned to AUC-SE measurements with starting concentrations of 5, 10, and 20 µM of STIL WT CCD peptide (Figures S18 and S19). The equilibrated data were fitted first to a model for a single ideal species, which provided a species 2.9 × monomer mass (Table 1). […] It should be noted that the dimerization constant of the WT peptide was measured in the presence of 5% DMSO and using a fluorophore-labeled peptide, while the tetramerization constant was measured without DMSO and unlabeled peptides. The addition of the label and the presence of the DMSO, which was unavoidable for making the labeled peptide soluble, may have affected the measured dimerization constant. Thus, we avoid directly comparing the values obtained by the two methods.
as §1
AUC sedimentation equilibrium (SE) experiments were run at multiple concentrations in a 6-Channel Epon charcoal-filled centerpiece. The samples were centrifuged at a range of speeds between 22–48 krpm. Absorbance scans across the radial range were recorded twice at each speed to ensure equilibration. Data were fitted to single, ideal species models or monomer-dimer equilibrium using Sedphat. In total, 95% confidence limits were obtained via Monte-Carlo analysis of the obtained fits. The quality of the fit was evaluated using the χ^2 parameter to observe which model best fit the data. Both fits of the data, where performed in Figures S18–S23 with their corresponding fit information.

Series [3] relates to STIL CCD peptide. The series can be described thus: AUC-SE dimer-tetramer model, tetramerization KD. The format is binding. To be noted: any experimental conditions; KDs could not be measured. The protocol: as §2
Analytical ultracentrifugation (AUC) experiments were carried out using a Beckman Optima XL-A or XL-I analytical ultracentrifuge. Measurements were performed at 20 °C unless otherwise stated, using an An-50 or An-60 rotor, in Sodium Phosphate Buffer pH 6.8 (25 mM Na2PO4 with addition of 137 mM NaCl, pH measured using Jenway (TM) 3510 benchtop and adjusted using 1M HCl and 1M NaOH solutions). The partial specific volume ( υ¯ ) for each peptide were calculated in Sedfit using values from Cohn and Edsall. The buffer densities and viscosities were calculated using UltraScan III [54]. […]

A short description of series [4]: CD spectroscopy, helicity. The format is physicochemical. To be noted: CD at 50 µM, 5 °C, 25 mM sodium phosphate pH 6.8, 154 mM NaCl. An excerpt: (§3) Next, we used circular dichroism (CD) spectroscopy to probe the secondary structures of these WT CCD peptide assemblies. […] The spectra all had minima at 208 and 222 nm indicative of largely α-helical structures. From the high-concentration spectra we estimated ≈47% helix. To compare how the stabilities of these helical assemblies changed with concentration, we followed the changes in MRE222 with temperature over the same concentration range (Figure 2D, Table S1). Sigmoidal curves indicative of cooperative unfolding were apparent at all concentrations, indicating a cooperatively folded, oligomeric species. […] The temperature-dependent CD measurements were performed to determine the oligomerization-dependent thermal stability of the CCD. […] CD spectra of the peptides were recorded using a J-810 spectropolarimeter (Jasco) in a 0.1 cm and 1 cm quartz cuvette for far-UV CD spectroscopy, in a spectral range of 190 nm to 260 nm. The buffer used in the CD measurements was 25 mM sodium phosphate buffer pH = 6.8 with ionic strength of 154 mM (adjected by NaCl). The thermal melting of all STIL CCD peptides were measured as described. The graphs were fitted to Boltzmann equation in order to generate the Tm. Normalization to mean residue ellipticity was performed. The 100% helicity was calculated (with normalization to the length of the peptide and the condition of the measurement) as MRE × 10^−3 of −38 (Deg × cm^2 × dmol^−1 × res^−1).

The format of series [5] is physicochemical. To be noted: for Tm: CD 222 nm, Boltzmann fit.
Source text: as §3

Series [6] addresses PLK4 884-970 (Homo sapiens) (UniProt O00444). The experiment in a line: ITC. To be noted: cited from earlier work.
The next series deals with STIL CCD_(718–749) L736E. The series can be described thus: crystal structure; L736E crystallized at 0.9 mM peptide, 50 mM Tris pH 8.0, 10% v/v MPD, 4 °C; 1.67 Å.
In series [7] the test system is Stil−/− mouse embryonic fibroblasts. Conditions: full-length STIL expressed in Stil−/− mouse embryonic fibroblasts; ref [14]; cited from earlier work. An excerpt: Presumably, this is due to the disruption of the hydrophobic CC interactions upon mutation from the hydrophobic Leu to the charged Glu. […] Other ...

The term Kd denotes a measure of binding affinity in units of concentration. As a reminder, the stoichiometry N is the number of molecules, sites or subunits per partner or assembly.

Where a chain is given by its changes, count along the chain named. Names and notes keep the numbering of the source. Read-outs that look alike come from different tables or passages of the source.

Chain of PLK4 884-970 (Homo sapiens) (O00444 884-970): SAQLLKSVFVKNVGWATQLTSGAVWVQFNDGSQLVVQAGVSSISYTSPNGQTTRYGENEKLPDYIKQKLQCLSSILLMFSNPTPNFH

As to “L SPDLYRF LTEQDRQ LRLLQAQ IQRLLEA QSL-NH2 [STIL CCD718–749 A722L, STIL CCD peptide with A722L mutation]”, in the series on STIL CCD peptide [1] (10 µM), the “Oligomeric State (at 10 µM)” value is on record as “Tetramer”. In addition, the values for the sw in the series with STIL CCD peptide [1] (10 µM) and with STIL CCD peptide [1] (100 µM) were 1.384 S and 1.483 S, respectively. Further, the “mw (solution mass from c(s) fit)” value amounted to 15133 Da in the series on STIL CCD peptide [1] (10 µM) and 15385 Da with STIL CCD peptide [1] (100 µM). In addition, the f/f0 with STIL CCD peptide [1] (10 µM) stood at 1.458; with STIL CCD peptide [1] (100 µM), 1.403. For the same molecule, the figures for the “sw(20,w)” value with STIL CCD peptide [1] (10 µM) and with STIL CCD peptide [1] (100 µM) were 1.428 S and 1.514 S, respectively. Also, the “oligomeric state (average number of monomers in the oligomer)” value with STIL CCD peptide [1] (10 µM, absorbance) is 3.92 × monomer mass; in the series with STIL CCD peptide [1] (100 µM, listed as STIL-A722L) it was 4.0 × monomer mass. Besides, the “AUC oligomeric state, SE” value in the series on STIL CCD peptide [2] (starting concentrations 5, 10, 20 µM, single ideal species fit, 20 °C, 25 mM phosphate pH 6.8) is reported as 3.51 ± 0.02 (5, 10, 20 µM) × monomer mass. The “mass, single species model, SE” value in the series on STIL CCD peptide [2] (starting concentrations 20, 10 and 5 µM) came to 13541 ± 94 Da. Further, the “dissociation of tetramer (in words)” value with STIL CCD peptide [3] is “could not be dissociated under any experimental conditions”. Further, the MRE222 nm in series [4] is −24.9 kdeg cm^2 dmol^−1 res^−1. For the same molecule, the “% Helicity” value in series [4] (from MRE222 (100% = −38)) came out at 66%. Moreover, the Tm in series [5] (3 µM, sodium phosphate pH 6.8) amounted to 48.0±0.7 °C; in series [5] (5 µM, sodium phosphate pH 6.8), 52.9±0.9 °C; in series [5] (6 µM, sodium phosphate pH 6.8) it was 53.6±0.6 °C; in series [5] (10 µM, sodium phosphate pH 6.8), 59.1±0.8 °C; in series [5] (15 µM, sodium phosphate pH 6.8), 63±1 °C; in series [5] (20 µM, sodium phosphate pH 6.8), 68±2 °C. Further, the Tm in series [5] (50 µM, 25 mM sodium phosphate pH 6.8, 154 mM NaCl) is >70 °C; in series [5] (50 µM, 25 mM sodium phosphate pH 6.8, 154 mM NaCl, listed as A722L), “over 70 °C”. Further, the “thermal denaturation (in words)” value in series [5] (50 µM, CD, 25 mM sodium phosphate pH 6.8, 154 mM NaCl) is “partially denatured”. In series [5] (pH 6.8), the “concentration dependence of Tm / thermal stability (in words)” value was “the thermal stability of A722L increased with peptide concentration”.

Consider STIL CCD (from UniProt Q15468), for which, in series [6], the Kd was 280 nM.

As to STIL CCD_(718–749) L736E (peptide), in the series with STIL CCD_(718–749) L736E, the stoichiometry N stood at 2.

B1: full-length L736E mutant: full-length STIL protein with L736E mutation (protein, UniProt Q15468 1-1287, looked up, variant L736E)
chain: MEPIYPFARPQMNTRFPSSRMVPFHFPPSKCALWNPTPTGDFIYLHLSYYRNPKLVVTEKTIRLAYRHAKQNKKNSSCFLLGSLTADEDEEGVTLTVDRFDPGREVPECLEITPTASLPGDFLIPCKVHTQELCSREMIVHSVDDFSSALKALQCHICSKDSLDCGKLLSLRVHITSRESLDSVEFDLHWAAVTLANNFKCTPVKPIPIIPTALARNLSSNLNISQVQGTYKYGYLTMDETRKLLLLLESDPKVYSLPLVGIWLSGITHIYSPQVWACCLRYIFNSSVQERVFSESGNFIIVLYSMTHKEPEFYECFPCDGKIPDFRFQLLTSKETLHLFKNVEPPDKNPIRCELSAESQNAETEFFSKASKNFSIKRSSQKLSSGKMPIHDHDSGVEDEDFSPRPIPSPHPVSQKISKIQPSVPELSLVLDGNFIESNPLPTPLEMVNNENPPLINHLEHLKPLQPQLYDEKHSPEVEAGEPSLRGIPNQLNQDKPALLRHCKVRQPPAYKKGNPHTRNSIKPSSHNGPSHDIFEKLQTVSAGNVQNEEYPIRPSTLNSRQSSLAPQSQPHDFVFSPHNSGRPMELQIPTPPLPSYCSTNVCRCCQHHSHIQYSPLNSWQGANTVGSIQDVQSEALQKHSLFHPSGCPALYCNAFCSSSSPIALRPQGDMGSCSPHSNIEPSPVARPPSHMDLCNPQPCTVCMHTPKTESDNGMMGLSPDAYRFLTEQDRQLRLEQAQIQRLLEAQSLMPCSPKTTAVEDTVQAGRQMELVSVEAQSSPGLHMRKGVSIAVSTGASLFWNAAGEDQEPDSQMKQDDTKISSEDMNFSVDINNEVTSLPGSASSLKAVDIPSFEESNIAVEEEFNQPLSVSNSSLVVRKEPDVPVFFPSGQLAESVSMCLQTGPTGGASNNSETSEEPKIEHVMQPLLHQPSDNQKIYQDLLGQVNHLLNSSSKETEQPSTKAVIISHECTRTQNVYHTKKKTHHSRLVDKDCVLNATLKQLRSLGVKIDSPTKVKKNAHNVDHASVLACISPEAVISGLNCMSFANVGMSGLSPNGVDLSMEANAIALKYLNENQLSQLSVTRSNQNNCDPFSLLHINTDRSTVGLSLISPNNMSFATKKYMKRYGLLQSSDNSEDEEEPPDNADSKSEYLLNQNLRSIPEQLGGQKEPSKNDHEIINCSNCESVGTNADTPVLRNITNEVLQTKAKQQLTEKPAFLVKNLKPSPAVNLRTGKAEFTQHPEKENEGDITIFPESLQPSETLKQMNSMNSVGTFLDVKRLRQLPKLF
modifications: full-length
notes: full-length STIL protein with L736E mutation
With B1, the “formation of centrosomes and cilia (in words)” value in series [7] was “completely disrupts the formation of centrosomes and cilia”.

B2: WT STIL: full-length wild-type STIL protein (protein, UniProt Q15468 1-1287, looked up)
chain: B1 chain with E736L
modifications: full-length
notes: full-length wild-type STIL protein
B2: in series [7], the “formation of centrosomes and cilia (in words)” value is listed as “rescues this phenotype”.
